Reference: ChEMBL document CHEMBL5338706, “Discovery of a potent and selective proteolysis targeting chimera (PROTAC) degrader of NSD3 histone methyltransferase” (Eur J Med Chem, 2022)
Calls of active or inactive are those of the source. The calls are words filed in the database; no cut-off is given here.

What was measured:
NCI-H1703 [1] = experiment: Induction of apoptosis in human NCI-H1703 cells assessed as early apoptotic cells at 10 uM measured after 72 hrs by PI/Annexin-V staining based flow cytometry analysis (reference value: 1.47% ); assay type: functional
[2] = target: Histone-lysine N-methyltransferase, H3 lysine-36 specific (Homo sapiens) (UniProt Q96L73); experiment: Induction of NSD1 degradation in human NCI-H1703 cells at 3 to […] incubated for 72 hrs by Western blot analysis; assay type: cell-based; conditions: dose 3-7.5 µM
Histone-lysine N-methyltransferase, H3 lysine-36 specific (Homo sapiens), sequence (Q96L73 whole entry): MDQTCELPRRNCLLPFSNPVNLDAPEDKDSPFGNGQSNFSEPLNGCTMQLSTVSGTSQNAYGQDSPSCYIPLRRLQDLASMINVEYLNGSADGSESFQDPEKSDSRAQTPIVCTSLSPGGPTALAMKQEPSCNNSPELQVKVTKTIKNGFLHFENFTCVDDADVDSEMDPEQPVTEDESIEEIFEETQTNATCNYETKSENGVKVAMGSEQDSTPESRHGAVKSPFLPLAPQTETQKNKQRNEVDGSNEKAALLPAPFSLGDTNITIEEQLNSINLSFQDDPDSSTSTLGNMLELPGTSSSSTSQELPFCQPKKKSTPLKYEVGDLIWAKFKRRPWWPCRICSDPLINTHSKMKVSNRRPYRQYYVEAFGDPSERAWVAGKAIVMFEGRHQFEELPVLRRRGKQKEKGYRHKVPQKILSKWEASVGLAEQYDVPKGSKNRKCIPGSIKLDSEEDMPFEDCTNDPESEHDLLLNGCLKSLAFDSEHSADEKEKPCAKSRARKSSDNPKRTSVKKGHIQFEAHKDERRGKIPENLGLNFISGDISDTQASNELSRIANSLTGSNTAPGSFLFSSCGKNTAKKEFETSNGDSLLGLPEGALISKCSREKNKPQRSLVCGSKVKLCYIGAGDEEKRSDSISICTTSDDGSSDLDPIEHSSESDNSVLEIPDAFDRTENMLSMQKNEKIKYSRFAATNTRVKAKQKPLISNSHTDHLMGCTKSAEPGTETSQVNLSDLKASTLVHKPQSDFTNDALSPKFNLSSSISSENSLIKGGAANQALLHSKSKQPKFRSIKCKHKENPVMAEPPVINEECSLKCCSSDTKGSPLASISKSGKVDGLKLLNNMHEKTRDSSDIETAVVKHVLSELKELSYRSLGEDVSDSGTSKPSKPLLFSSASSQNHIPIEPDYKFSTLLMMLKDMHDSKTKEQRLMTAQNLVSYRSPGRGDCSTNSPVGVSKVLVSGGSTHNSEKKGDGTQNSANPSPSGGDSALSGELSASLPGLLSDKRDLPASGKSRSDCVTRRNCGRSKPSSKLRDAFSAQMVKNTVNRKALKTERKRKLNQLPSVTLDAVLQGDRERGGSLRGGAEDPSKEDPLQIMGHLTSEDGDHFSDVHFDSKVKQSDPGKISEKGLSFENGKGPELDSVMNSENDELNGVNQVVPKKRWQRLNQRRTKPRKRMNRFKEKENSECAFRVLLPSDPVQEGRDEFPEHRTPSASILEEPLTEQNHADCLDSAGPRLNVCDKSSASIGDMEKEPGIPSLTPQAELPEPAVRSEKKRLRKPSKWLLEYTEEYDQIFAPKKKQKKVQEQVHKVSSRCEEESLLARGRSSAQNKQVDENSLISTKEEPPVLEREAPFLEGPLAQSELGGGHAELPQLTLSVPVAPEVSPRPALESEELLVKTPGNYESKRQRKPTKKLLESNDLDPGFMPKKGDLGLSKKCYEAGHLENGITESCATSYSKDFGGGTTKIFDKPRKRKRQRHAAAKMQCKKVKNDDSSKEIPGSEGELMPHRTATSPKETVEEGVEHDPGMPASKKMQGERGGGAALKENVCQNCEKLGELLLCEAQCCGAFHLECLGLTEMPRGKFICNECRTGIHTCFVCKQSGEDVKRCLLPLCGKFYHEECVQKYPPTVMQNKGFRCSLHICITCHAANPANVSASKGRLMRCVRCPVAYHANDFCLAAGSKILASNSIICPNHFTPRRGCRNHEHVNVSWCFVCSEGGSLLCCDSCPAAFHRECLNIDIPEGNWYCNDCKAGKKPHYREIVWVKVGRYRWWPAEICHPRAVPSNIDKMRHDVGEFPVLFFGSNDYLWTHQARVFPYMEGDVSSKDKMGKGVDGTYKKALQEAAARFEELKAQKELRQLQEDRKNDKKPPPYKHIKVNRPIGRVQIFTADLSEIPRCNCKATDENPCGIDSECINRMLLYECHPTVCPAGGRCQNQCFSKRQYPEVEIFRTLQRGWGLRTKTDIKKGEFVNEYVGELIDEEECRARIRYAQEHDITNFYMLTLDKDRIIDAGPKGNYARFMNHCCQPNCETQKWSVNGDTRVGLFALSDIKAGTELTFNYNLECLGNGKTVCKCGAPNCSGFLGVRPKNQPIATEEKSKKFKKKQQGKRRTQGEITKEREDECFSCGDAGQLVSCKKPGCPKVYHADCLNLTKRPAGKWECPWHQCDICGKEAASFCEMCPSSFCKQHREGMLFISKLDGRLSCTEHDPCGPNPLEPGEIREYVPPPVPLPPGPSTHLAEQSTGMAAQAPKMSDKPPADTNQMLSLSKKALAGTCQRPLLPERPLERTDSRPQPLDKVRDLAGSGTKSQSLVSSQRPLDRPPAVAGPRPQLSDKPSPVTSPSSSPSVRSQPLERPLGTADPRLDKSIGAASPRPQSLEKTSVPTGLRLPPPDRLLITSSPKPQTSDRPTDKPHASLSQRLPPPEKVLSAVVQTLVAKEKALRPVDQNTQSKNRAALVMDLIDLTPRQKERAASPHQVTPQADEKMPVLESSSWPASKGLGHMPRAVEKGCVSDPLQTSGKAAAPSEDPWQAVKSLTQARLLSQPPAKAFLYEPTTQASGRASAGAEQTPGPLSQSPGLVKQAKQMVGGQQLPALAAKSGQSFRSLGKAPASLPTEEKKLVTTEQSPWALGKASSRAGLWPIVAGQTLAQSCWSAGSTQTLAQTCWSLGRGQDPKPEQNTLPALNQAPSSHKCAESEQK

NCI-H1703 [3] = experiment: Induction of apoptosis in human NCI-H1703 cells assessed as decrease in NSD3 protein expression at […] by measuring fold change by Western blot analysis relative to control; assay type: functional; conditions: dose 7.5 µM
[4] = Downregulation of CDC25A level in human NCI-H1703 cells at 3 uM by measuring fold change by Western blot analysis relative to control; assay type: functional
NCI-H1703 [5] = experiment: Induction of apoptosis in human NCI-H1703 cells assessed as early apoptotic cells at 3 uM measured after 72 hrs by PI/Annexin-V staining based flow cytometry analysis (reference value: 1.47% ); assay type: functional
[6] = Downregulation of c-Myc level in human NCI-H1703 cells at 3 uM by measuring fold change by Western blot analysis relative to control; assay type: functional
NCI-H1703 [7] = experiment: Induction of apoptosis in human NCI-H1703 cells assessed as decrease in Bcl-XL protein expression at 5 uM by measuring fold change by Western blot analysis relative to control; assay type: functional
[8] = Downregulation of c-Myc level in human NCI-H520 cells at 5 uM by measuring fold change by Western blot analysis relative to control; assay type: functional
[9] = Downregulation of c-Myc level in human NCI-H1703 cells at […] by measuring fold change by Western blot analysis relative to control; assay type: functional; conditions: dose 7.5 µM
NCI-H1703 [10] = experiment: Downregulation of CDC25A level in human NCI-H1703 cells at 3 to […] by Western blot analysis; assay type: functional, cell-based; conditions: dose 3-7.5 µM
[11] = target: T1, Histone-lysine N-methyltransferase NSD3 (Homo sapiens, UniProt Q9BZ95); experiment: Induction of NSD3 degradation in human A549 cells measured after 72 hrs by Western blot analysis; assay type: cell-based
T1 sequence (Q9BZ95 whole entry): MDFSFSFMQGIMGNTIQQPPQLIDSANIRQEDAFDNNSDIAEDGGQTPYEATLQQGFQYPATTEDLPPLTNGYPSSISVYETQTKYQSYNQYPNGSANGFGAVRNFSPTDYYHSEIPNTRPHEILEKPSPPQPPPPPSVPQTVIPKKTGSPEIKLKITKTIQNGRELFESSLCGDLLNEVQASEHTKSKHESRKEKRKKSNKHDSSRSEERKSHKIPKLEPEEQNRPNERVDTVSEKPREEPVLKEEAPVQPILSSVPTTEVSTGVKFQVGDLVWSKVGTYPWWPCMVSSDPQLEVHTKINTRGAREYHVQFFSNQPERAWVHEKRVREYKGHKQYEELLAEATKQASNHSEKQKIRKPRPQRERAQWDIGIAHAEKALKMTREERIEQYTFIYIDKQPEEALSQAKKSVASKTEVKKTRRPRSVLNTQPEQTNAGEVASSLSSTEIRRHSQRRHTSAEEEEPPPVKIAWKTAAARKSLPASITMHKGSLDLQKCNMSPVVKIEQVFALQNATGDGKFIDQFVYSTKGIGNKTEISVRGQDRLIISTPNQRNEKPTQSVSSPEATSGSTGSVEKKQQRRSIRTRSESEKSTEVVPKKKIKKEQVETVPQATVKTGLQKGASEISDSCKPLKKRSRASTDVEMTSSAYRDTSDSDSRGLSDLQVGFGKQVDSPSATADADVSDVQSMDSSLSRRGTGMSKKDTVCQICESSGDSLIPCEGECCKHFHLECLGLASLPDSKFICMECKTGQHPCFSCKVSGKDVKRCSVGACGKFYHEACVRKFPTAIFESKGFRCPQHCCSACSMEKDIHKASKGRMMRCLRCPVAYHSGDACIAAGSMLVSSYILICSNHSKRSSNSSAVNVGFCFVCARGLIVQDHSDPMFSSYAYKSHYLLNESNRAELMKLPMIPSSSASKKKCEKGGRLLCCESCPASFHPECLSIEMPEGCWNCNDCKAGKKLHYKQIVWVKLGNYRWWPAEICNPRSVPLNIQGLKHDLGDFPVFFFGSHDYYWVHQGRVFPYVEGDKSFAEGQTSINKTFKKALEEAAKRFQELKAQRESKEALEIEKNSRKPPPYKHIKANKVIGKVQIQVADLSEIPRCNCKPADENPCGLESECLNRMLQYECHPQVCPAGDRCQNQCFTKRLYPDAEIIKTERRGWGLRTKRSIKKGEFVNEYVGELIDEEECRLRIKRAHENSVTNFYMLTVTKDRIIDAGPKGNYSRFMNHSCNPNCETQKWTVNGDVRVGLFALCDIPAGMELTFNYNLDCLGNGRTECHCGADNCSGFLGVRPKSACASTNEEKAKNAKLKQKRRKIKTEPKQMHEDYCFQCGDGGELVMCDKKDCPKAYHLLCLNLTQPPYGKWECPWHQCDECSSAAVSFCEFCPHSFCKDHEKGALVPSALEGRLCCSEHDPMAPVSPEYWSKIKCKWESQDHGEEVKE

NCI-H520 = experiment: Downregulation of CyclinD1 level in human NCI-H520 cells at 3 to […] by Western blot analysis; assay type: functional, cell-based; conditions: dose 3-7.5 µM
[12] = Downregulation of NSD3 level in human NCI-H520 cells at […] by measuring fold change by Western blot analysis relative to control; assay type: functional; conditions: dose 7.5 µM
NCI-H1703 [13] = experiment: Downregulation of CDC25A in human NCI-H1703 cells at […] measured after 72 hrs by RNA sequencing assay; assay type: functional, cell-based; conditions: dose 7.5 µM
[14] = Downregulation of CDC25A level in human NCI-H520 cells at […] by measuring fold change by Western blot analysis relative to control; assay type: functional; conditions: dose 7.5 µM
[15] = target: T2, Histone-lysine N-methyltransferase NSD3 (Homo sapiens) (UniProt Q9BZ95); experiment: Induction of NSD3 degradation in human NCI-H1703 cells at […] incubated for 48 hrs in presence of MG132 by Western blot analysis; assay type: cell-based; conditions: dose 7.5 µM
T2 sequence (whole entry): T1 sequence (Q9BZ95 whole entry)

[16] = Downregulation of NSD3 level in human NCI-H1703 cells at 3 uM by measuring fold change by Western blot analysis relative to control; assay type: functional
NCI-H1703 [17] = experiment: Induction of cell cycle arrest in human NCI-H1703 cells assessed as increase accumulation of cells at G2/M phase at […] incubated for 48 hrs by propidium iodide staining based analysis; assay type: functional; conditions: dose 7.5 µM
[18] = Downregulation of NSD3 level in human NCI-H520 cells at 5 uM by measuring fold change by Western blot analysis relative to control; assay type: functional
[19] = Downregulation of c-Myc level in human NCI-H520 cells at […] by measuring fold change by Western blot analysis relative to control; assay type: functional; conditions: dose 7.5 µM
NCI-H1703 [20] = experiment: Induction of apoptosis in human NCI-H1703 cells assessed as decrease in MCL-1 protein expression at 5 to 10 uM by Western blot analysis; assay type: functional, cell-based; conditions: dose 5-10 µM
[21] = target: T2, Histone-lysine N-methyltransferase NSD3 (Homo sapiens); experiment: Induction of NSD3 degradation in human NCI-H1703 cells measured upto 72 hrs by Western blot analysis; assay type: cell-based; conditions: dose 0.001-10 µM

In the case of `Cc1cc(CNCCCCCCCCCCC(=O)N[C@H](C(=O)N2C[C@H](O)C[C@H]2C(=O)N[C@@H](C)c2ccc(-c3scnc3C)cc2)C(C)(C)C)cc(C)c1-c1ncn(C)c1-c1ccnc2cc(F)ccc12`, the Activity (NCI-H1703 [1]) is reported as 12.8%, the Activity [2] is reported as “inactive” and the “fold change (FC)” value (NCI-H1703 [3]) is reported as 0.73. The “fold change (FC)” value [4] was 0.81, the Activity (NCI-H1703 [5]) was 1.48% and the “fold change (FC)” value [6] was 0.86. For the same compound, the “fold change (FC)” value (NCI-H1703 [7]) was 1.1, the “fold change (FC)” value [8] was 0.97 and the “fold change (FC)” value [9] was 0.72. The Activity (NCI-H1703 [10]) was “Active”, the EC50 [11] was 940 nM and the Activity (NCI-H520) was “Active”. For the same compound, the “fold change (FC)” value [12] was 0.61, the Activity (NCI-H1703 [13]) was “Active” and the “fold change (FC)” value [14] was 0.6. For the same compound, the Activity [15] was “inactive”, the “fold change (FC)” value [16] was 0.97 and the Activity (NCI-H1703 [17]) was “Active”. For the same compound, the “fold change (FC)” value [18] was 0.7, the “fold change (FC)” value [19] was 0.78 and the Activity (NCI-H1703 [20]) was “Active”. The Activity [21] was “Dose-Dependent Effect”.
